The values below are quoted from earlier work in patent US10653667B2, “Drug for preventing, treating or preventing metastasis of giant cell tumor that occurs in bone or soft parts, chondrosarcoma, or osteosarcoma, local injection for arterial embolization, and artificial bone” (NIPPON CHEMIPHAR CO., LTD, priority 2013, dated 2020).

Data set [1] concerns OST cells, human bone sarcoma-derived cultured cells. As to conditions: transdermally administered; after four weeks; cited from earlier work.
Data set [2] relates to synovial cells derived from rheumatism patients. As to conditions: cited from earlier work.

Molecules are shown by their SMILES.

For `CC(C(=O)O)c1cccc(C(=O)c2ccccc2)c1` (stereo not shown) [ketoprofen], in data set [1], the “tumor weight relative to placebo group” value is listed as 48%. In data set [2], the “activation of PPARγ” value was “did not cause activation of PPARγ”, the apoptosis result was “did not cause” and the “suppression of proliferation of the cells” value is given as “did not cause”.
